Data set [1] deals with OVA challenged mice. Nature of the data set: Inflammatory cell infiltration into the lung: total and differential BAL cell counts after OVA challenge. It counts as in vivo, C57BL/6 mice. As to conditions: Example 8, 0.07% (w/w) in diet; for Reduction in numbers of lymphocytes in BAL / Reduction in numbers of monocytes/macrophages in BAL / Reduction of total BAL cell counts / Suppression of accumulation of eosinophils in BAL: compared to control diet. Here is the method:
Eight to nine week old male and female C57BL/6 mice (University of Auckland, New Zealand) were kept on an ovalbumin (OVA)-free normal mouse chow diet from weaning up until they were assigned to a particular diet (control or experimental diet). Each diet group (n=6) contained an equal number of male and female mice. Throughout the study period mice were kept in an air-conditioned room with controlled humidity, temperature, and a 12 h light:dark cycle.
(§1) Body weights were determined, and blood samples collected via the tail vein, prior to assignment of mice to particular diets. After two weeks on an assigned diet mice were immunized with two intraperitoneal (i.p.) injections of 20 μg of OVA (chicken egg albumin grade V; Sigma Chemical Co., St Louis, Mo.) complexed with 2 mg of Imject Alum (Al(OH)3/Mg(OH)2; Pierce Rockford Ill.) in a total volume of 100 μl of PBS on days 0 and 14. Two weeks after the 2nd injection mice were anaesthetized by i.p. injection of a mixture of ketamine and xylazine (Phoenix, Auckland, New Zealand), and challenged intranasally with 100 μg of OVA in 50 μl of PBS. Undiseased control mice were immunized and challenged with PBS using a similar regime. Body weights were determined, and blood, bronchoalveolar lavage (BAL) fluid, and lung tissue samples were collected 6 days after the intranasal challenge. Blood was collected by cardiac puncture after deeply anaesthetizing mice by i.p. injection of a mixture of ketamine and xylazine. Serum was separated from blood samples, and stored at −80° C.
Bronchoalveolar lavage was performed immediately after euthanasia by flushing 1 ml of PBS containing 1% heat inactivated fetal calf serum (lavage buffer) thrice through the lung and airways of mice via the cannulated trachea. The recovered BAL was pooled for each animal, centrifuged at 1,500 rpm at 4° C., and the supernatant stored at −80° C. The cell pellets were resuspended in 1 ml of lavage buffer, and total cell numbers were counted using a hemocytometer. BAL cells were centrifuged onto poly-L-lysine-coated glass slides using a cytospin, and stained with Diff-Quik stain (Dade Behring Inc. USA). Differential cellular counts were made by counting ≧300 cells under light microscopy (Nikon E200 microscope), using standard morphological criteria.

A further data set deals with OVA-specific IgE. Nature of the data set: OVA-specific IgE in serum by ELISA. As to conditions: Table 9; 0.07% (w/w) in diet; OVA challenged mice. It counts as in vivo, C57BL/6 mice. Here is the method: as §1
(§2) OVA-specific IgG1 in serum samples was measured by standard ELISA employing 96 well microtitre plates (Nunc Maxisorp). Plates were coated with 100 μl of 0.1 M carbonate buffer, pH 9.5, containing 10 μg/ml of OVA (Sigma) overnight at 4° C. After 3 washes with PBS-T (PBS with 0.05% Tween-20) plates were blocked with 200 μl of 3% BSA in PBS, pH 7.2, at room temperature for 90 min. One hundred microlitres of each serum sample (diluted 1:40) was added in triplicate to the wells, and incubated for 2 h at 37° C. Wells were washed four times with PBS-T and 100 μl of goat anti-mouse IgG1-HRP conjugated antibody (Bethyl Laboratories, USA) was added at 1:50,000 dilution. Plates were incubated for 1 h at 37° C., washed 5 times with PBS-T, and 100 μl of peroxidase enzyme substrate o-phenylene diamine (OPD, Sigma Chemical Co, St Louis, Mo.) was added to each well. The colour reaction was stopped after ˜20 min by addition of 50 μl of 4 M H2SO4 to each well. Absorbance was read at 490 nm in a BioRad microplate ELISA reader. Positive and negative sera were used as controls.
OVA-specific IgE was measured as for OVA-specific IgG1 except serum samples were diluted 1:5, and OVA was coated on plates at 100 μg/ml (35). A biotin-conjugated rat anti-mouse IgE monoclonal antibody (diluted 1:200; Pharmingen, San Diego, Calif.) was used to detect OVA-specific IgE antibody, and was detected with avidin-HRP conjugate (diluted 1:250) followed by development with OPD.

The test system of a further data set is OVA-specific IgG1. Description: OVA-specific IgG1 in serum by ELISA. It counts as in vivo, C57BL/6 mice. The conditions noted are these: Table 10; 0.07% (w/w) in diet; OVA challenged mice. The method, then:
as §1, §2

Data set [2] deals with OVA challenged mice. Nature of the data set: Mucus index score: Schiff staining of airway epithelia. It counts as in vivo, C57BL/6 mice. The conditions noted are these: 0.07% (w/w) in diet; for Suppression (inhibition) of mucus production: Example 9, compared to control diet, significance not reached; for Mucus Index Score (Mean ± SEM): Table 7, scale 0-4. Here is the method: as §1
(§3) Following BAL, the right lobes of lungs were immediately frozen in dry ice and stored at −80° C. for protein and Western blot analysis. The left lobes of lungs were fixed in 4% paraformaldehyde in 0.1 M PBS (pH 7.4) overnight and embedded either in optimum cutting temperature compound (OCT, Tissue Tek) and kept frozen at −80° C. until cryosectioning for immunohistochemistry, or in paraffin for routine histopathological analysis. Some were stained with a combined hematoxylin-Biebrich Scarlet solution by Luna's method for eosinophils to detect eosinophil granules (34) or with Alcian Blue-Periodic Acid Schiff for the detection of acid and neutral mucins and identification of goblet cells.
The level of Schiff staining of airway epithelia was semi-quantitatively determined to give a mucus index score as described (38), but modified in that Schiff staining was scored by microscopic viewing of airways. A minimum of 4 to 6 representative transversely or sagittally sectioned airways were graded per animal using a scale of 0 (no staining), 1 (25% or less of the airway epithelium stained), 2 (26-50% of the airway epithelium stained), 3 (51-75% of the airway epithelium stained), and 4 ([…]). Airways were analysed only when the complete circumference of the airway could be visualized, and those that opened directly into an alveolar space were not included.

Data set [3] concerns OVA challenged mice. Nature of the data set: Histopathology score of lung airway changes. It counts as in vivo, C57BL/6 mice. As to conditions: 0.07% (w/w) in diet; for Inhibition of allergen-specific remodelling and inflammation of the lung, in words: Example 10; for Histopathology score (Mean ± SEM): Table 8. The method, then: as §1, §3
The histopathology score was determined from inspection of alcian blue-PAS stained paraffin embedded sections of the left lung of each animal. Lung inflammation, perivascular/peribronchiolar infiltrates, airway epithelial hypertrophy, goblet-cell hyperplasia, constriction of bronchioles, mucin hypersecretion, and beneficial presence of phagocytic macrophages were graded on a scale of 0 (no change) to 4 (marked change). Each animal received an overall histopathology score based on summation of individual scores for each criteria. All slides were scored in a blinded fashion (blinded to diet treatment/group assignment), and scores were presented as the mean±SEM of 4-6 animals/group.

The next data set deals with liver. As to conditions: fed to mice at 0.4% w/w for 4 weeks; cited from earlier work.

For `CCCCCC/C=C/C=C\CCCCCCCC(=O)O` (single isomer, unassigned) [Synthetic c-9, t-11 CLA isomer Free fatty acid, c-9, t-11 CLA], in the data set on OVA challenged mice [1], the “Reduction in numbers of lymphocytes in BAL” value worked out at 72%, the “Reduction in numbers of monocytes/macrophages in BAL” value stood at 61%, the “Reduction of total BAL cell counts” value is 74% and the “Suppression of accumulation of eosinophils in BAL” value is listed as 87%. In the data set on OVA-specific IgE, the “IgE Values, Average (allergen-specific IgE responses)” value (shortened to “IgE Values, Average”) is 0.89. Further, the “IgG Values, Average (allergen-specific IgG responses)” value (from here on “IgG Values, Average”) in the data set with OVA-specific IgG1 is listed as 1.91. Further, in the data set with OVA challenged mice [2], the “Suppression (inhibition) of mucus production” value (“Suppression (inhibition)” for short) is 32% and the “Mucus Index Score (Mean ± SEM)” value is reported as 2.04 ± 1.13. Also, in the data set with OVA challenged mice [3], the “Inhibition of allergen-specific remodelling and inflammation of the lung, in words” value is reported as “able to significantly inhibit”; the “Histopathology score (Mean ± SEM)” value was 2.02 ± 0.66. The “Histopathology score (Mean ± SEM)” value in the data set on OVA challenged mice [3] (listed as free fatty acid form of the c-9, t-11 isomer) is 2.02.
Consider `CCCCC/C=C\C=C\CCCCCCCCC(=O)O` (single isomer, unassigned) [Synthetic t-10, c-12 CLA isomer Free Fatty Acid, t-10, c-12 CLA, reference compound], for which, in the data set on OVA-specific IgE, the “IgE Values, Average” value was 1.25. The “IgG Values, Average” value in the data set with OVA-specific IgG1 was 1.95. Also, in the data set with OVA challenged mice [2], the “Suppression (inhibition)” value is 7% and the “Mucus Index Score (Mean ± SEM)” value was 2.80 ± 1.35. Also, the “Histopathology score (Mean ± SEM)” value in the data set with OVA challenged mice [3] is recorded as 3.28 ± 0.46.
For “c-9, t-11 CLA [Synthetic c-9, t-11 CLA isomer Triglyceride]”, in the data set on OVA challenged mice [1], the “Reduction in numbers of lymphocytes in BAL” value is on record as 43%, the “Reduction in numbers of monocytes/macrophages in BAL” value came to 53%, the “Reduction of total BAL cell counts” value came out at 56% and the “Suppression of accumulation of eosinophils in BAL” value is given as 62%. Besides, in the data set on OVA-specific IgE, the “IgE Values, Average” value is on record as 1.17. The “IgG Values, Average” value with OVA-specific IgG1 was determined as 1.96. Also, in the data set on OVA challenged mice [2], the “Suppression (inhibition)” value is 15% and the “Mucus Index Score (Mean ± SEM)” value is listed as 2.58 ± 0.94. The “Histopathology score (Mean ± SEM)” value with OVA challenged mice [3] amounted to 3.08 ± 0.69.
For “t-10, c-12 CLA [Synthetic t-10, c-12 CLA isomer Triglyceride, reference compound]”, the “IgE Values, Average” value with OVA-specific IgE was 1.29. Further, the “IgG Values, Average” value in the data set on OVA-specific IgG1 was 1.98. In the data set with OVA challenged mice [2], the “Suppression (inhibition)” value amounted to 15% and the “Mucus Index Score (Mean ± SEM)” value worked out at 2.57 ± 1.16. Moreover, the “Histopathology score (Mean ± SEM)” value with OVA challenged mice [3] stood at 3.20 ± 0.79.
With “t-10, c-12 CLA [t-10, c-12 CLA isomer, reference compound]”, in the data set on OVA challenged mice [1], the “Eosinophil count compared to the control diet, in words” value was “no significant difference”; the “Lymphocyte count compared to the control diet, in words” value is listed as “no significant difference”; the “Monocyte/macrophages count compared to the control diet, in words” value was “no significant difference”; the “Total BAL count compared to the control diet, in words” value is recorded as “no significant difference”. The “Inhibition of allergen-specific remodelling and inflammation of the lung, in words” value in the data set on OVA challenged mice [3] was “not effective”. Besides, in the data set with liver, the “Effect on the liver, in words” value is listed as “dramatic enlargement of the liver with steatosis”.

(Values after patent publication US20080193550A1, “Cla-Enriched Milkfat and Uses Thereof” (FONTERRA CORPORATE RESEARCH AND DEVELOPMENT LIMITED, priority 2004, published 2008).)
